The target in test [1] is T1, human cloned dopamine D4.2 receptors (Homo sapiens, UniProt P21917, DEL265-296).
T1 construct: expressed in transfected cells; host or cells: CHO cells
T1 sequence (P21917 with tags, fused parts or gaps DEL265-296): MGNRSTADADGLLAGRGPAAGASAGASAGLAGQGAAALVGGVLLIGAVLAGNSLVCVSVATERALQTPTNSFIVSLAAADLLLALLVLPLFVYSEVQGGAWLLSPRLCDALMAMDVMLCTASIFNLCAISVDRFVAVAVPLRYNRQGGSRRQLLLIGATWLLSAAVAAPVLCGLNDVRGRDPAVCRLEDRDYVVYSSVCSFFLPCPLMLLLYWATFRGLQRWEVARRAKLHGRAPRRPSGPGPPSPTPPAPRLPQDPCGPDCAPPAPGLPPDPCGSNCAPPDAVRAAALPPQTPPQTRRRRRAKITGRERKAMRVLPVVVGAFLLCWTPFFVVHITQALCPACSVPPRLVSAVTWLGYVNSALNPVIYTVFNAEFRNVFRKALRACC
Description: Inhibition of the binding of 3H-YM-09151-2 to human dopamine D4 receptors. Conditions: [3H]YM-09151-2 0.06 nM; for IC50: membranes of CHO-cells, read-out: D4-bind. IC50; for inhibition at 0.05 µM: test compound at 50 nM, read-out: D4-bind. % inhibition of binding at 50 nM. As to the method:
Inhibition of the Binding of ^3H-YM-09151-2 to Human Dopamine D4 Receptors
By this method the inhibition by drugs of the binding of [^3H]YM-09151-2 (0.06 nM) to membranes of human cloned dopamine D4.2 receptors expressed in CHO-cells is determined in vitro. Method modified from NEN Life Science Products, Inc., technical data certificate PC2533-10/96. The results are given in the following Table 1 as IC50-values or as percent inhibition of the binding of ^3H-YM-09151 -2 at the concentration of the test compound indicated.

In test [2] the target is T2, human cloned dopamine D3 receptors (Homo sapiens, UniProt P35462).
T2 construct: expressed in transfected cells; host or cells: CHO cells
As to the kind of experiment: Inhibition of the binding of [3H]-Spiperone to human D3 receptors. The conditions noted are these: [3H]Spiperone 0.3 nM; for IC50: membranes of CHO-cells, read-out: D3-bind. IC50; for inhibition at 0.05 µM: test compound at 50 nM, read-out: D3-bind. % inhibition of binding at 50 nM. The method, then:
Inhibition of the Binding of [^3H]-Spiperone to Human D3 Receptors
By this method the inhibition by drugs of the binding [^3H]Spiperone (0.3 nM) to membranes of human cloned dopamine D3 receptors expressed in CHO-cells is determined in vitro. Method modified from R. G. MacKenzie et al. Eur. J. Pharm.-Mol. Pharm. Sec. 1994, 266, 79-85. The results are given in the following Table 1 as IC50-values or as percent inhibition of the binding of ^3H-Spiperone at the concentration of the test compound indicated.

T2 sequence (P35462 whole entry): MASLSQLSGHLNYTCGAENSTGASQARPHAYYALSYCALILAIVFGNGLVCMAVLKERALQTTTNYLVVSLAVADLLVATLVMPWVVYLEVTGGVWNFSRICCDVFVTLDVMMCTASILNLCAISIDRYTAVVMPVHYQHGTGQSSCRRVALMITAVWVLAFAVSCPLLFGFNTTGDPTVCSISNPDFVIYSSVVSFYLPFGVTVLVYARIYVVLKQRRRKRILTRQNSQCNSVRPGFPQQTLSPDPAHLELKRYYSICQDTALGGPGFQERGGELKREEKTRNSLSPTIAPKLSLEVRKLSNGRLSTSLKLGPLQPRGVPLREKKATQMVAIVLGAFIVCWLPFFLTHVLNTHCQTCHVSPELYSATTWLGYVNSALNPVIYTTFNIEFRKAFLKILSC

`Cc1c(Oc2cccc(N(C)C)c2)cccc1N1CCN(CCCc2c[nH]c3ccccc23)CC1` [Compound 1a]: the IC50 (as a rule, the point on the concentration scale where inhibition reaches its midpoint) in test [1] turned out to be 48 nM; in test [2], 26 nM.

For the molecule `Cc1c(N2CCN(CCCc3c[nH]c4c(F)cc(F)cc34)CC2)cccc1N1CCC[C@H]1CO` [Compound 2s, (S)-1-[3-(2-Hydroxymethylpyrrolidin-1-yl)-2-methylphenyl]-4-[3-(5,7-difluoro-1H-indol-3-yl)propyl]piperazine], the IC50 in test [1] came out at 41 nM. Also, the inhibition (usually how much of the control response was suppressed) at 0.05 µM in test [2] amounted to 36%.

Take `COc1cc(Oc2cccc(N3CCN(CCCc4c[nH]c5ccc(F)cc45)CC3)c2C)cc(OC)c1OC` [Compound 2b, 1-[2-Methyl-3-(3,4,5-trimethoxyphenoxy)phenyl]-4-[3-(5-fluoro-1H-indol-3-yl)propyl]piperazine]: the inhibition at 0.05 µM in test [1] is 98%. Moreover, the IC50 in test [2] was found to be 6.8 nM.

As for `Cc1c(Oc2ccc3c(c2)OCO3)cccc1N1CCN(CCCc2c[nH]c3ccccc23)CC1` [Compound 2i, 1-[3-(1,3-Benzodioxolan-5-yloxy)-2-methylphenyl]-4-[3-(1H-indol-3-yl)propyl]piperazine], the IC50 in test [1] turned out to be 35 nM. For the same molecule, the inhibition at 0.05 µM in test [2] came out at 54%.

Consider `COc1cc(Oc2cccc(N3CCN(CCCc4c[nH]c5ccc(Cl)cc45)CC3)c2C)cc(OC)c1OC` [Compound 2e, 1-[2-Methyl-3-(3,4,5-trimethoxyphenoxy)phenyl}-4-[3-(5-chloro-1H-indol-3-yl)propyl]piperazine], for which, in test [1], the IC50 stood at 10 nM. Moreover, the inhibition at 0.05 µM in test [2] came to 71%.

Turning to `Cc1c(N2CCN(CCCc3c[nH]c4c(F)cc(F)cc34)CC2)cccc1N1CC(C)OC(C)C1` (stereo not shown) [Compound 2w, 1-[3-(2,6-Dimethylmorpholin-4-yl)-2-methylphenyl]-4-[3-(5,7-difluoro-1H-indol-3-yl)propyl]piperazine], the half-inhibitory concentration (IC50) in test [1] was determined as 34 nM. Also, in test [2], the inhibition at 0.05 µM stood at 43%.

As for `Cc1c(N2CCOCC2)cccc1N1CCN(CCCc2c[nH]c3ccccc23)CC1` [Compound 1b, 1-[3-(1H-Indol-3-yl)propyl]-4-[2-methyl-3-(morpholin-4-yl)-phenyl]piperazine], the figures for the IC50 in test [1] and in test [2] were 5.9 nM and 220 nM, respectively.

Take `Cc1c(N2CCOCC2)cccc1N1CCCN(CCCc2c[nH]c3ccc(F)cc23)CC1` [Compound 2aa, 1-[3-(Morpholin-4-yl)-2-methylphenyl]-4-[3-(5-fluoro-1H-indol-3-yl)propyl]-1,4-diazepane]: the figures for the inhibition at 0.05 µM in test [1] and in test [2] were 53% and 40%, respectively.

For the molecule `Cc1c(Oc2cccc(N(C)C)c2)cccc1N1CCN(CCCc2c[nH]c3ccc(Cl)cc23)CC1` [Compound 2m], the IC50 in test [1] was found to be 57 nM. The inhibition at 0.05 µM in test [2] was found to be 74%.

Turning to `CCN(CC)c1cccc(Oc2cccc(N3CCCN(CCCc4c[nH]c5c(F)cc(F)cc45)CC3)c2C)c1` [Compound 2x, 1-{3-[3-(Diethylamino)phenoxy]-2-methylphenyl}-4-[3-(5,7-difluoro-1H-indol-3-yl)propyl]-1,4-diazepane], in test [1], the IC50 stood at 76 nM. Moreover, in test [2], the inhibition at 0.05 µM was 66%.

For `Cc1c(N2CCN(CCCc3c[nH]c4ccc(F)cc34)CC2)cccc1N1CCC[C@H]1CO` [Compound 2p, (S)-1-[3-(2-Hydroxymethylpyrrolidin-1-yl)-2-methylphenyl]-4-[3-(5-fluoro-1H-indol-3-yl)propyl]piperazine], the inhibition at 0.05 µM amounted to 67% in test [1] and 54% in test [2].

As to `Cc1c(N2CCN(CCCc3c[nH]c4ccccc34)CC2)cccc1N1CCC[C@H]1CO` [Compound 2o, (S)-1-[3-(2-Hydroxymethylpyrrolidin-1-yl)-2-methylphenyl]-4-[3-(1H-indol-3-yl)propyl]piperazine], the IC50 in test [1] came to 52 nM. The inhibition at 0.05 µM in test [2] came out at 19%.

Regarding `CCN(CC)c1cccc(Oc2cccc(N3CCN(CCCCc4c[nH]c5ccc(F)cc45)CC3)c2C)c1` [Compound 2k, 1-{3-[3-(Diethylamino)phenoxy]-2-methylphenyl}-4-[4-(5-fluoro-1H-indol-3-yl)butyl]piperazine], in test [1], the IC50 worked out at 40 nM. For the same molecule, in test [2], the inhibition at 0.05 µM is 96%.

On to `CCN(CC)c1cccc(Oc2cccc(N3CCN(CCCc4c[nH]c5ccc(F)cc45)CC3)c2C)c1` [Compound 2a], for which the IC50 amounted to 5.4 nM in test [1] and 10 nM in test [2].

For the molecule `CCN(CC)c1cccc(Oc2cccc(N3CCN(CCCc4c[nH]c5c(F)cc(F)cc45)CC3)c2C)c1` [Compound 2d, 1-{3-[3-(Diethylamino)phenoxy]-2-methylphenyl}-4-[3-(5,7-difluoro-1H-indol-3-yl)propyl]piperazine], the IC50 in test [1] was determined as 12 nM. For the same molecule, the inhibition at 0.05 µM in test [2] stood at 70%.

Consider `Cc1c(N2CCOCC2)cccc1N1CCN(CCCc2c[nH]c3ccc(Cl)cc23)CC1` [Compound 2l, 1-[3-(Morpholin-4-yl)-2-methylphenyl]-4-[3-(5-chloro-1H-indol-3-yl)propyl]piperazine], for which, in test [1], the IC50 was 30 nM. Further, the inhibition at 0.05 µM in test [2] was determined as 40%.

On to `CCN(CC)c1cccc(Oc2cccc(N3CCN(CCCc4c[nH]c5ccccc45)CC3)c2C)c1` [Compound 2f, 1-{3-[3-(Diethylamino)phenoxy]-2-methylphenyl}-4-[3-(1H-indol-3-yl)propyl]piperazine], for which, in test [1], the 50% inhibitory concentration (IC50) came out at 35 nM. For the same molecule, in test [2], the inhibition at 0.05 µM came to 70%.

With `CCN(CC)c1cccc(Oc2cccc(N3CCN(CCCCc4c[nH]c5ccc(Cl)cc45)CC3)c2C)c1` [Compound 2ab, 1-{3-[3-(Diethylamino)phenoxy]-2-methylphenyl}-4-[4-(5-chloro-1H-indol-3-yl)butyl]piperazine], the figures for the inhibition at 0.05 µM in test [1] and in test [2] were 53% and 83%, respectively.

Consider `Cc1c(Oc2cccc(N(C)C)c2)cccc1N1CCN(CCCCc2c[nH]c3c(F)cc(F)cc23)CC1` [Compound 2r, 1-{3-[3-(Dimethylamino)phenoxy]-2-methylphenyl}-4-[4-(5,7-difluoro-1H-indol-3-yl)butyl]piperazine], for which, in test [1], the IC50 was 62 nM. For the same molecule, in test [2], the inhibition at 0.05 µM is 90%.

With `Cc1c(N2CCN(CCCc3c[nH]c4ccc(F)cc34)CC2)cccc1N1CC(C)OC(C)C1` (stereo not shown) [Compound 2j, 1-[3-(2,6-Dimethylmorpholin-4-yl)-2-methylphenyl]-4-[3-(5-fluoro-1H-indol-3-yl)propyl]piperazine], the IC50 in test [1] was 36 nM. In addition, in test [2], the inhibition at 0.05 µM was 57%.

Consider `Cc1c(Oc2cccc(N(C)C)c2)cccc1N1CCN(CCCc2c[nH]c3c(F)cc(F)cc23)CC1` [Compound 2z, 1-{3-[3-(Dimethylamino)phenoxy]-2-methylphenyl}-4-[3-(5,7-difluoro-1H-indol-3-yl)propyl]piperazine], for which, in test [1], the IC50 is 32 nM. In addition, the inhibition at 0.05 µM in test [2] turned out to be 59%.

With `Cc1c(Oc2ccc3c(c2)OCO3)cccc1N1CCN(CCCc2c[nH]c3ccc(F)cc23)CC1` [Compound 2q, 1-[3-(1,3-Benzodioxolan-5-yloxy)-2-methylphenyl]-4-[3-(5-fluoro-1H-indol-3-yl)propyl]piperazine], the IC50 in test [1] is 43 nM. The inhibition at 0.05 µM in test [2] came out at 61%.

Regarding `Cc1c(N2CCCN(CCCc3c[nH]c4ccc(F)cc34)CC2)cccc1N1CC(C)OC(C)C1` (stereo not shown) [Compound 2g, 1-[3-(2,6-Dimethylmorpholin-4-yl)-2-methylphenyl]-4-[3-(5-fluoro-1H-indol-3-yl)propyl]-1,4-diazepan], the IC50 in test [1] is 26 nM. Moreover, in test [2], the inhibition at 0.05 µM was found to be 65%.

As to `CCN(CC)c1cccc(Oc2cccc(N3CCN(CCCc4c[nH]c5ccc(Cl)cc45)CC3)c2C)c1` [Compound 2c, 1-{3-[3-(Diethylamino)phenox]-2-methylphenyl}-4-[3-(5-chloro-1H-indol-3-yl)propyl]piperazine], the IC50 stood at 5.5 nM in test [1] and 13 nM in test [2].

In the case of `Cc1c(Oc2ccc3c(c2)OCO3)cccc1N1CCN(CCCc2c[nH]c3c(F)cc(F)cc23)CC1` [Compound 2t, 1-[3-(1,3-Benzodioxolan-5-yloxy)-2-methylphenyl]-4-[3-(5,7-difluoro-1H-indol-3-yl)propyl]piperazine], the IC50 in test [1] stood at 47 nM. Moreover, in test [2], the inhibition at 0.05 µM was 54%.

For `Cc1c(Oc2cccc(N(C)C)c2)cccc1N1CCN(CCCc2c[nH]c3ccc(F)cc23)CC1` [Compound 2h, 1-{3-[3-(Dimethylamino)phenoxy]-2-methylphenyl}-4-[3-(5-fluoro-1H-indol-3-yl)propyl]piperazine], the IC50 in test [1] was found to be 37 nM. Further, the inhibition at 0.05 µM in test [2] is 77%.
